Measured values as given in patent US7297704B2, “Cycloalkyfused indole, benzothiophene, benzofuran and idene derivatives” (Wyeth, priority 2005, dated 2007).
Structures can show the parent of a compound that is named as a salt. Where two headings read alike, the source gives them in different places. Marks after values point to notes of the source that are not given here.

Columns and labels:
Human 5-HT1A Receptor [1] = molecular target: T1, Human 5-HT1A Receptor (Homo sapiens, UniProt P08908); test: cAMP RIA in human 5-HT1A receptor cell line; type: cell-based; settings: CHO cells; for EC50: superscript a, read-out: c-AMP, (EC50)^a; for EC50 / Emax / c-AMP, (Emax)^c: forskolin stimulated cAMP; for Emax / c-AMP, (Emax)^c: superscript c; for Emax: read-out: c-AMP, (Emax)^c; for IC50: superscript b, reversal of agonist activity, read-out: c-AMP, (IC50)^b
T1 construct: expressed in transfected cells; host or cells: CHO cells
T1 sequence (P08908 1-422): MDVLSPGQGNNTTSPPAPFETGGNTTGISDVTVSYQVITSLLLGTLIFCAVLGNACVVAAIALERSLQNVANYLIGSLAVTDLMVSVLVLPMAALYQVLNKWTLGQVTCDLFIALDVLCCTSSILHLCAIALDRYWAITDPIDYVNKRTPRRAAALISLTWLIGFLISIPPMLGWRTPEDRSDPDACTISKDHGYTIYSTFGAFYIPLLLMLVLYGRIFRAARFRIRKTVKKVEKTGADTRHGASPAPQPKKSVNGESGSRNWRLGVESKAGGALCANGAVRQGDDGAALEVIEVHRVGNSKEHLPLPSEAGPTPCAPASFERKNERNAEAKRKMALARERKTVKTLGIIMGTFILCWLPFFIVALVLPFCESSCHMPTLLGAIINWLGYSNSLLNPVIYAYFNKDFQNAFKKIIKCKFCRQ
Outline: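 Stably transfected CHO cells preincubated in Krebs with 500 uM IBMX, then given forskolin (1 uM final) and test compound (0.1 and 1 uM initial screen) for 10 min at 37° C; cAMP measured by RIA as % inhibition. Antagonist mode: 6 concentrations preincubated 20 min before agonist plus forskolin; IC50 for reversal.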

serotonin transporter = molecular target: T2, serotonin transporter (Rattus norvegicus, UniProt P31652); test: 3H-paroxetine binding to the serotonin transporter, rat frontal cortical membranes; settings: values printed without parentheses, 3H-paroxetine 0.1 nM, read-out: rb-5-HH-T, Ki
T2 construct: frontal cortical membranes prepared from male S.D. rats; from tissue; host or cells: rat frontal cortex membranes (male Sprague-Dawley)
Outline: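 Male Sprague-Dawley rat frontal cortical membranes incubated with 0.1 nM ³H-paroxetine for 60 min at 25 °C, test compound at one to eight concentrations; 10 μM fluoxetine defined specific binding. Filtration separated bound ligand, counted by scintillation. IC50 from nonlinear regression, converted to Ki by Cheng–Prusoff.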

h-5-HT-T = h-5-HT-T (Homo sapiens, UniProt P31645); test: h-5-HT-T IC50 (Table 1, no method described)
Human 5-HT1A Receptor [2] = molecular target: T1, Human 5-HT1A Receptor; test: 8-OH-DPAT binding, human 5-HT1A receptor cell line; settings: stably transfected CHO cells, 8-OH-DPAT ligand 1.5 nM; read-out: h5-HT1A Affinity, Ki
Outline: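 Membranes from CHO cells stably expressing human 5-HT1A, incubated 30 min at room temperature in 50 mM Tris pH 7.5 with 1.5 nM radioligand (8-OH-DPAT). Non-specific binding defined with […]; filtration on PEI-soaked GF/B filters. Single-point inhibition at […], then Ki for actives.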

[3] = molecular target: T3, cloned human 5-HT1A receptors (Homo sapiens, UniProt P08908); test: 35S-GTPγS binding assay; type: biochemical; settings: for EC50: superscript a, potency of stimulatory effect; for IC50: superscript b, reversal of 8-OH-DPAT effect; for Emax: superscript c, maximum stimulatory effect; for Imax (maximum inhibitory effect) / GTPγS, (Imax)^d: superscript d, maximum inhibitory effect
T3 construct: expressed in transfected cells
T3 sequence (P08908 1-422): T1 sequence (P08908 1-422)
From the text: The ^35S-GTPγS binding assay similar to that used by Lazareno and Birdsall (Br. J. Pharmacol., 1993, 109: 1120) was used to determine the test compound's ability to affect the binding of ^35S-GTPγS to membranes containing cloned human 5-HT1A receptors. Agonists produce an increase in binding whereas antagonists produce no increase but rather reverse the effects of the standard agonist 8-OH-DPAT. The test compound's maximum stimulatory effect is represented as the Emax, while its potency is defined by the EC50. The test compound's maximum inhibitory effect is represented as the Imax, while its potency is defined by the IC50. […] was used to determine maximum agonist or antagonist response.

T2 sequence (P31652 whole entry): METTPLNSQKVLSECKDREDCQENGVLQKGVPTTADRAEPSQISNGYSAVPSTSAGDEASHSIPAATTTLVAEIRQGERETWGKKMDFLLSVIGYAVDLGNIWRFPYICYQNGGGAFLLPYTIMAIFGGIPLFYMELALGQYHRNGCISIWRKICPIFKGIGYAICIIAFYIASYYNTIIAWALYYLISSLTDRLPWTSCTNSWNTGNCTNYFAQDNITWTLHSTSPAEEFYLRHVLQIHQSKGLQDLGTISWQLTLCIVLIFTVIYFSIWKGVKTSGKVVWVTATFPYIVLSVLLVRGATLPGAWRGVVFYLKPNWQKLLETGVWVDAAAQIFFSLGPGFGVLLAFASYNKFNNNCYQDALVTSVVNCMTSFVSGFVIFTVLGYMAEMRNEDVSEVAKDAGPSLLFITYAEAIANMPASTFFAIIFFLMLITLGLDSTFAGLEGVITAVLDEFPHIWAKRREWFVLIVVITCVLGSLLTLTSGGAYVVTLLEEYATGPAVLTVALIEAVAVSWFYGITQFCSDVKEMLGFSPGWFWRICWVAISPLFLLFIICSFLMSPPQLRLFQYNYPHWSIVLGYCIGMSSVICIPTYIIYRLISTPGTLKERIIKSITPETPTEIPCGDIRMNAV
Chain of h-5-HT-T (P31645 whole entry): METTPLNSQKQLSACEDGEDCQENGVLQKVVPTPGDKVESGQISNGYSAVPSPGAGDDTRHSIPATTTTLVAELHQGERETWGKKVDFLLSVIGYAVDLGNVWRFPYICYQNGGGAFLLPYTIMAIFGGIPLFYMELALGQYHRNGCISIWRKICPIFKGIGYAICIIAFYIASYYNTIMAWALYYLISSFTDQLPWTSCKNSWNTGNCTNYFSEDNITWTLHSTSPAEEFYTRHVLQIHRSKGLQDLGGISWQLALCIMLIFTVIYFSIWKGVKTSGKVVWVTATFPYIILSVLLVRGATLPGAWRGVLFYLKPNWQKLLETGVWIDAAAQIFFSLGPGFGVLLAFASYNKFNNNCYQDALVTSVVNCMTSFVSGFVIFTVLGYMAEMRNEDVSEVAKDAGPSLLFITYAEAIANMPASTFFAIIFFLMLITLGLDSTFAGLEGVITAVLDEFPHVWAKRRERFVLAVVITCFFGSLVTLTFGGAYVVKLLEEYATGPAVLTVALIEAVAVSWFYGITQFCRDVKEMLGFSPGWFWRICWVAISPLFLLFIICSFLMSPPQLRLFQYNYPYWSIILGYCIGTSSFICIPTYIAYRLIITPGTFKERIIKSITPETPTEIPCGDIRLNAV

Compound	EC50 (Human 5-HT1A Receptor [1])	Emax (Human 5-HT1A Receptor [1])	Ki (serotonin transporter)	IC50 (h-5-HT-T)	Ki (Human 5-HT1A Receptor [2])	EC50 [3]	IC50 [3]	Emax [3]	Imax (maximum inhibitory effect) [3]	Emax (Human 5-HT1A Receptor [1]; CHO)	GTPγS, (Imax)^d [3]	c-AMP, (Emax)^c (Human 5-HT1A Receptor [1])	IC50 (Human 5-HT1A Receptor [1])
Cc1ccc2c3c(ccc2n1)OC[C@H](CNCCC1CCc2[nH]c4ccc(F)cc4c2C1)O3 (mixture of isomers) [Example 40, [2-(6-Fluoro-2,3,4,9-tetrahydro-1H-carbazol-3-yl)ethyl]{[(2S)-8-methyl-2,3-dihydro[1,4]dioxino[2,3-f]quinolin-2-yl]methyl}amine dihydrochloride]	4.06 nM	100%	48.4 nM	1.24 ± 0.16 nM	680 nM	7.1 nM	75 nM	46%	34%				
Cc1ccc2c3c(ccc2n1)OC[C@H](CNCC1CCc2sc4ccc(F)cc4c2C1)O3 (single isomer, unassigned) [31 diastereomer 1]			9.9 nM	337 nM	1.14 nM		155 nM			62%	95%^d		
Cc1ccc2c3c(ccc2n1)OC[C@H](CNCC1CCc2sc4ccc(F)cc4c2C1)O3 (single isomer, unassigned) [31 diastereomer 2]			51.5 nM	547 nM	3.67 nM		290 nM				65%^d	62%^c	
Cc1ccc2c3c(ccc2n1)OC[C@H](CNCC1CCc2sc4ccccc4c2C1)O3 (single isomer, unassigned) [32 diastereomers 1]			> 1000 nM		8.07 nM		494 nM		100%				67.6 nM
Cc1ccc2c3c(ccc2n1)OC[C@H](CNCC1CCc2c(sc4cc(F)ccc24)C1)O3 (single isomer, unassigned) [39 diastereomer 1]			210 nM	2060 nM	7.09 nM		645 nM		100%	62%			
Cc1ccc2c3c(ccc2n1)OC[C@H](CNCC1CCc2c(sc4cc(F)ccc24)C1)O3 (single isomer, unassigned) [39 diastereomer 2]			184 nM	1440 nM	2.16 nM		117 nM				80%^d	75%^c	
Cc1ccc2c3c(ccc2n1)OC[C@H](CNCC[C@@H]1CCc2[nH]c4ccc(F)cc4c2C1)O3 (single isomer, unassigned) [Example 41, dihydrochloride]	4.13 nM	94%	9.45 nM	0.58 ± 0.14 nM	242 nM	24.8 nM		94%					
Cc1ccc2c3c(ccc2n1)OC[C@H](CNCC[C@H]1CCc2[nH]c4ccc(F)cc4c2C1)O3 (single isomer, unassigned) [Example 42, dihydrochloride]	36.4 nM	87%	58 nM	2.8 ± 0.12 nM	751 nM	63 nM	351 nM	39%	71%				
Cc1ccc2c3c(ccc2n1)OC[C@H](CN[C@H]1CCc2c([nH]c4ccccc24)C1)O3 (single isomer, unassigned) [Example 45, dihydrochloride]	157 nM	59%	34.3 nM	38.95 ± 0.18 nM	365 nM		461 nM						
CCN(CC1CCc2[nH]c3ccc(F)cc3c2C1)C[C@H]1COc2ccc3nc(C)ccc3c2O1 (stereo partly drawn) [Example 50, N-[(6-Fluoro-2,3,4,9-tetrahydro-1H-carbazol-3-yl)methyl]-N-{[(2S)-8-methyl-2,3-dihydro[1,4]dioxino[2,3-f]quinolin-2-yl]methyl}ethanamine dihydrochloride dihydrate]			26.9 nM	5.73 ± 0.33 nM	226 nM		179 nM		100%				137 nM
Cc1ccc2c3c(ccc2n1)OC[C@H](CN(CC1CC1)CC1CCc2[nH]c4ccc(F)cc4c2C1)O3 (stereo partly drawn) [Example 52, (Cyclopropylmethyl)[(6-fluoro-2,3,4,9-tetrahydro-1H-carbazol-3-yl)methyl]{[(2S)-8-methyl-2,3-dihydro[1,4]dioxino[2,3-f]quinolin-2-yl]methyl}amine dihydrochloride dihydrate]	312 nM	70%	670 nM	19.5 ± 0.28 nM	936 nM		1580 nM		100%				
Cc1ccc2c3c(ccc2n1)OC[C@H](CN(CC1CCc2[nH]c4ccc(F)cc4c2C1)C1CCC1)O3 (stereo partly drawn) [Example 53, N-[(6-Fluoro-2,3,4,9-tetrahydro-1H-carbazol-3-yl)methyl]-N-{[(2S)-8-methyl-2,3-dihydro[1,4]dioxino[2,3-f]quinolin-2-yl]methyl}cyclobutanamine dihydrochloride dihydrate]	126 nM	68%	498 nM	39.1 ± 3.85 nM	5740 nM								
CCCN(C[C@@H]1CCc2[nH]c3ccc(F)cc3c2C1)C[C@H]1COc2ccc3nc(C)ccc3c2O1 [Example 54, N-{[(3R)-6-Fluoro-2,3,4,9-tetrahydro-1H-carbazol-3-yl]methyl}-N-{[(2S)-8-methyl-2,3-dihydro[1,4]dioxino[2,3-f]quinolin-2-yl]methyl}propan-1-amine dihydrochloride dihydrate]	177 nM	48%	96.5 nM	16.6 ± 0.85 nM	617 nM		581 nM		63%				
CCC(C)N(C[C@@H]1CCc2[nH]c3ccc(F)cc3c2C1)C[C@H]1COc2ccc3nc(C)ccc3c2O1 (stereo partly drawn) [Example 58, N-{[(3R)-6-Fluoro-2,3,4,9-tetrahydro-1H-carbazol-3-yl]methyl}-N-{[(2S)-8-methyl-2,3-dihydro[1,4]dioxino[2,3-f]quinolin-2-yl]methyl}butan-2-amine monohydrochloride monohydrate]		22%	358 nM	113 ± 22.5 nM	1190 nM								
Cc1ccc2c3c(ccc2n1)OC[C@H](CN(C[C@@H]1CCc2[nH]c4ccc(F)cc4c2C1)C1CCCC1)O3 [Example 59, N-{[(3R)-6-Fluoro-2,3,4,9-tetrahydro-1H-carbazol-3-yl]methyl}-N-{[(2S)-8-methyl-2,3-dihydro[1,4]dioxino[2,3-f]quinolin-2-yl]methyl}cyclopentanamine monohydrochloride monohydrate]	431 nM	81%	362 nM	115 ± 16.4 nM	3120 nM								
Cc1ccc2c3c(ccc2n1)OC[C@H](CN(C)C[C@H]1CCc2c(c4cc(F)ccc4n2C)C1)O3 [Example 68, {[(3S)-6-Fluoro-9-methyl-2,3,4,9-tetrahydro-1H-carbazol-3-yl]methyl}methyl{[(2S)-8-methyl-2,3-dihydro[1,4]dioxino[2,3-f]quinolin-2-yl]methyl}amine monohydrochloride monohydrate]		34.8%	293 nM	15.2 ± 0.74 nM	3720 nM								
Cc1ccc2c3c(ccc2n1)OC[C@H](CN(C)C[C@@H]1CCc2c(c4cc(F)ccc4n2C)C1)O3 [Example 69, {[(3R)-6-Fluoro-9-methyl-2,3,4,9-tetrahydro-1H-carbazol-3-yl]methyl}methyl{[(2S)-8-methyl-2,3-dihydro[1,4]dioxino[2,3-f]quinolin-2-yl]methyl}amine monohydrochloride monohydrate]	548 nM	63%	220 nM	35.8 ± 0.71 nM	1590 nM								
